This note sets out measurements from EP3875086A1, “DUAL-INHIBITORS OF CELLULAR NECROPTOSIS AND FERROPTOSIS FOR USE IN THE TREATMENT OF ORGAN TRANSPLANT PATIENTS” (Technische Universität Dresden, priority 2020, dated 2021).

Assay [1] is described as follows: Murine kidney ischemia-reperfusion injury model. The class given is in vivo, C57BL/6 mice. The following applies: mice, 30 min ischemia. Here is the method: • Figure 1: Overview of chemical structures of different necrostatins. Structural differences between Nec-1f in comparison to known necroptosis inhibitors Nec-1 and Nec-1s. Highlighted are the main residues involved in facilitating protection from necroptosis and/or ferroptosis. • Figure 2: Biotinylation of Nec-1. Simplified scheme of linking the target molecule Nec-1 to a biotin anker. […] (A, B) Inhibition of cell death by Nec-1f in NIH3T3 cells was assessed by flow cytometry. Cells were treated with the ferroptosis inducer RSL-3 (1.13 µM) for 6 h with or without simultaneous substitution of necrostatins. The percentage of cells positive for annexinV and 7-AAD was recorded. (C, D) Viability of NIH3T3 cells after induction of ferroptosis. Cells were treated with 1.13 µM RSL-3 for 6 h and collected for flow cytometry. […] (A, B) Inhibition of necroptotic cell death by Nec-1f in NIH3T3 cells was assessed by flow cytometry. Cells were treated with the TNF, Birinapant and z-VAD-fmk (TSZ) to induce necroptosis. After 18 h necroptosis induction with or without simultaneous substitution of necrostatins the cells were harvested and stained for flow cytometry. The percentage of cells positive for annexinV and 7-AAD was recorded. (C, D) Viability of NIH3T3 cells 18h after induction of necroptosis via TSZ treatment. […] Animals were subjected to 30 min of ischemia after i.p. injection of 0.6 mg Nec-1f per kg bodyweight or the respective vehicle control in PBS. (A, B) After 48h mice were sacrificed and serum creatinine levels and serum urea levels were measured as markers of renal function and intoxication. Error bars represent standard deviation. • Figure 6: Synthesis of 5-[(7-Chloro-1H-indol-3-yl)methyl]-3-methyl-2-thioxo-imidazolidin-4-one (1-3; Nec-1f) according to example 2. • Figure 7: Synthesis of 5-[(3aS,4R,6aR)-2-Oxo-1,3,3a,4,6,6a-hexahydrothieno[3,4-d]imidazol-4-yl]-N-[[1-[2-[2-[2-[[3-[(1-methyl-5-oxo-2-thioxo-imidazolidin-4-yl)methyl]-1H-indol-7-yl]oxy]ethoxy]ethoxy]ethyl]triazol-4-yl]methyl]pentanamide (2-8; biotinylated Nec-1) according to example 3. […]

For assay [2], the system named is NIH3T3 cells. The experiment in a line: Inhibition of TNF/Birinapant/zVAD (TSZ)-induced necroptosis, flow cytometry (annexinV / 7-AAD). Type of assay: cell-based, Murine. The following applies: TNF + Birinapant + z-VAD-fmk (TSZ), 18 h. Here is the method:
(§1) • Figure 1: Overview of chemical structures of different necrostatins. Structural differences between Nec-1f in comparison to known necroptosis inhibitors Nec-1 and Nec-1s. Highlighted are the main residues involved in facilitating protection from necroptosis and/or ferroptosis. • Figure 2: Biotinylation of Nec-1. Simplified scheme of linking the target molecule Nec-1 to a biotin anker. […] (A, B) Inhibition of cell death by Nec-1f in NIH3T3 cells was assessed by flow cytometry. Cells were treated with the ferroptosis inducer RSL-3 (1.13 µM) for 6 h with or without simultaneous substitution of necrostatins. The percentage of cells positive for annexinV and 7-AAD was recorded. (C, D) Viability of NIH3T3 cells after induction of ferroptosis. Cells were treated with 1.13 µM RSL-3 for 6 h and collected for flow cytometry. […] (A, B) Inhibition of necroptotic cell death by Nec-1f in NIH3T3 cells was assessed by flow cytometry. […] The percentage of cells positive for annexinV and 7-AAD was recorded. […] (A, B) After 48h mice were sacrificed and serum creatinine levels and serum urea levels were measured as markers of renal function and intoxication. […]
(§2) Phosphatidylserine exposure to the outer cell membrane of apoptotic cells or at the inner plasma membrane of necrotic cells and incorporation of 7-AAD into necrotic cells were quantified by fluorescence-activated cell sorting (FACS) analysis. […]
A general note: A flow cytometer gives signals particle by particle.

The subject of assay [3] is NIH3T3 cells. Put plainly: Inhibition of RSL-3-induced ferroptosis, flow cytometry (annexinV / 7-AAD). The class given is cell-based, Murine. The following applies: RSL-3 1.13 µM for 6 h, with simultaneous necrostatin. Here is the method:
as §1, §2

Where [4] appears, read: 0.6 mg Nec-1f per kg bodyweight i.p. 15 min before ischemia, 48 h after reperfusion.

Structures are written as SMILES. “Also recorded” adds a separate entry of the source.

Regarding `CN1C(=O)C(Cc2c[nH]c3c(Cl)cccc23)NC1=S` (centres unmarked) [Nec-1f, 5-[(7-Chloro-1H-indol-3-yl)methyl]-3-methyl-2-thioxo-imidazolidin-4-one], the “protection in animal model of renal ischemia-reperfusion injury” value in assay [1] (0.6 mg Nec-1f per kg bodyweight i.p.) is reported as “protective”. In addition, in assay [1] (setting [4]), the “serum creatinine levels (marker of renal function)” value is recorded as “reversed” and the “serum urea levels (intoxication marker)” value was “reversed”. The “assays used to detect necroptosis (cell death / viability, annexinV and 7-AAD)” value in the assay with NIH3T3 cells [2] is reported as “protects cells from undergoing necroptosis; also recorded: reversed”. Further, the “assays used to detect ferroptosis (cell death / viability, annexinV and 7-AAD)” value in the assay on NIH3T3 cells [3] was “protects cells from undergoing ferroptosis; also recorded: reversed”.
